According to patent US20260125421A1, “ANTIVIRAL COMPOUNDS” (Hoffmann-La Roche Inc., priority 2022, published 2026):

Legend:
Test in all cases: biochemical
SARS-CoV 3CL^pro = SARS-CoV 3CL^pro (Severe acute respiratory syndrome coronavirus, UniProt P0C6X7)
HCoV-229E 3CL^pro = target: T1, HCoV-229E 3CL^pro (Human coronavirus 229E, UniProt P0C6X1)
T1 construct: […]; made in house; host or cells: E. coli BL21 (DE3)

SARS-CoV-2 3CL^pro = target: T2, SARS-CoV-2 3CL^pro (Severe acute respiratory syndrome coronavirus 2, UniProt P0DTD1)
T2 construct: […]; made in house; host or cells: Escherichia coli

MERS-CoV 3CL^pro = MERS-CoV 3CL^pro (Middle East respiratory syndrome-related coronavirus, UniProt K9N7C7)
Sequence of MERS-CoV 3CL^pro (K9N7C7 3248-3553): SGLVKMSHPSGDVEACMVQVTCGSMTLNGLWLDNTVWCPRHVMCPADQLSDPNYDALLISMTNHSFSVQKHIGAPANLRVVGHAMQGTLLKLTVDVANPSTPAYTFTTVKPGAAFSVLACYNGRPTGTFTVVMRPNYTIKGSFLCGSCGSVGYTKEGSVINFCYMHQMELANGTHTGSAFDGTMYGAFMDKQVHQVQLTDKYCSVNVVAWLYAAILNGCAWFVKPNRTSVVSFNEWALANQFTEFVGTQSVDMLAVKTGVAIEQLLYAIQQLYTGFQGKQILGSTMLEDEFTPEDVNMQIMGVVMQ

T1 sequence (P0C6X1 2966-3267): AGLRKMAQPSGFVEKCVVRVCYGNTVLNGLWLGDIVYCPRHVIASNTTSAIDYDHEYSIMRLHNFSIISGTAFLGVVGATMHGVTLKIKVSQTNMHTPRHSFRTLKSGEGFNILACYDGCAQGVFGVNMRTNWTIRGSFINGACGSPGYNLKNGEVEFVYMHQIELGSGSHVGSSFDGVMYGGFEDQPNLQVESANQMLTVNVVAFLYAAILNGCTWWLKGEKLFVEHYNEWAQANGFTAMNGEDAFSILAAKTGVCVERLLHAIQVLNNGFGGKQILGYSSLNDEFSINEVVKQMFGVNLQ

Compound `CC1(C)C[C@@H](CN(NC(=O)[C@@H]2[C@H]3CCC[C@H]3CN2C(=O)[C@@H](NC(=O)C(F)F)C(C)(C)C)C(=O)[C@H](F)Cl)C(=O)N1` [Example 11, N-[(1S)-1-[(3S,3aS,6aR)-3-[[[(2R)-2-chloro-2-fluoro-acetyl]-[[(3S)-5,5-dimethyl-2-oxo-pyrrolidin-3-yl]methyl]amino]carbamoyl]-3,3a,4,5,6,6a-hexahydro-1H-cyclopenta[c]pyrrole-2-carbonyl]-2,2-dimethyl-propyl]-2,2-difluoro-acetamide] has an IC50 (SARS-CoV 3CL^pro) of 14 nM, an IC50 (HCoV-229E 3CL^pro) of 1690 nM and an IC50 (SARS-CoV-2 3CL^pro) of 9 nM. It also gave an IC50 (MERS-CoV 3CL^pro) of 909 nM.
`CCC(CC)[C@H](NC(=O)C(F)F)C(=O)N1C[C@@H]2CCC[C@@H]2[C@H]1C(=O)NN(C[C@@H]1CC(C)(C)NC1=O)C(=O)[C@@H](F)Cl` [Example 12, N-[(1S)-1-[(3S,3aS,6aR)-3-[[[(2S)-2-chloro-2-fluoro-acetyl]-[[(3S)-5,5-dimethyl-2-oxo-pyrrolidin-3-yl]methyl]amino]carbamoyl]-3,3a,4,5,6,6a-hexahydro-1H-cyclopenta[c]pyrrole-2-carbonyl]-2-ethyl-butyl]-2,2-difluoro-acetamide] showed an IC50 (SARS-CoV 3CL^pro) of 13 nM, an IC50 (HCoV-229E 3CL^pro) of 1240 nM and an IC50 (SARS-CoV-2 3CL^pro) of 9 nM. For the same compound, the IC50 (MERS-CoV 3CL^pro) was 555 nM.
`CCC(CC)[C@H](NC(=O)C(F)F)C(=O)N1C[C@@H]2CCC[C@@H]2[C@H]1C(=O)NN(C[C@H]1CC(C)(C)NC1=O)C(=O)[C@H](F)Cl` [Example 8] was tested, and the IC50 (SARS-CoV 3CL^pro) was 256 nM, the IC50 (HCoV-229E 3CL^pro) was 6710 nM and the IC50 (SARS-CoV-2 3CL^pro) was 129 nM. It also gave an IC50 (MERS-CoV 3CL^pro) of 3020 nM.
Compound `CC(C)(C)[C@H](NC(=O)[C@@H]1CC1(F)F)C(=O)N1C[C@@H]2CCC[C@@H]2[C@H]1C(=O)NN(C[C@@H]1C(=O)N[C@@H]2C[C@H]12)C(=O)[C@H](F)Cl` [Example 38, (1S)-N-[(1S)-1-[(3S,3aS,6aR)-3-[[[(2R)-2-chloro-2-fluoro-acetyl]-[[(1R,4R,5R)-3-oxo-2-azabicyclo[3.1.0]hexan-4-yl]methyl]amino]carbamoyl]-3,3a,4,5,6,6a-hexahydro-1H-cyclopenta[c]pyrrole-2-carbonyl]-2,2-dimethyl-propyl]-2,2-difluoro-cyclopropanecarboxamide] has an IC50 (SARS-CoV 3CL^pro) of 54 nM, an IC50 (HCoV-229E 3CL^pro) of 134 nM and an IC50 (SARS-CoV-2 3CL^pro) of 27 nM. It also gave an IC50 (MERS-CoV 3CL^pro) of 398 nM.
